# Test results from patent US11260011B2, “Use of neohesperidin” (NATURAL MEDICINE INSTITUTE OF ZHEJIANG YANGSHENGTANG CO., …, priority 2011, dated 2022).
# Values joined by “and” are separate entries in the source; they are usually repeats but may differ in a detail not shown here. Equal entries are not always repeated.
# Columns and labels:
# [1] = topical application to human skin; cited from earlier work
# [2] = Effect of topical application of neohesperidin on skin microcirculation by Laser Doppler Flowmetery; assay type: in vivo, Oryctolagus cuniculus; set-up: key to Working time point: —: represents the time point at which P < 0.1 did not appear during the 24 h test when 2% solution was administered orally
# Description: The experimental method for promoting microcirculation: Male Oryctolagus cuniculus weighted 3.0-3.5 kg were used. After shaving the hair on the back of the Oryctolagus cuniculus, 10 points for testing blood flow were marked with a marker pen on the hairless skin of the rabbit, i.e. 5 points for each of the right side and the left side, and aorta was avoided when drawing the points. Before smearing the sample, the basic values of blood flow at the 10 points of rabbits of each experimental group were determined by Laser Doppler Flowmetery. […] 2% (w/v) solution was orally administrated by a similar method in a volume 100 times compared to the volume used in the group wherein the 2% (w/v) solution was administered by smearing. After administration, the blood flow value was determined every hour at the same point by Laser Doppler Flowmetery for 24 h, and the variation index of blood flow was calculated to evaluate the effect of neohesperidin on the back blood of rabbits, wherein a higher variation index of blood flow indicated a better effect of promoting microcirculation. The experimental results were statistically analyzed by SPSS11.5 software, and t-test was applied to the measured data to evaluate the experimental results. When P<0.1, the data may be regarded as statistically significant. In the results of Table 1, all the time points with P<0.1 in the 24-h test were listed.
compound,measurement,setting,value
ginkgo flavone,improvement of skin microcirculation after topical administration to skin surface,[1],cannot significantly improve skin microcirculation
ginsenoside,improvement of skin microcirculation after topical administration to skin surface,[1],cannot significantly improve skin microcirculation
C[C@@H]1CC[C@@]2(OC1)O[C@H]1C[C@H]3[C@@H]4CC=C5C[C@@H](O)C[C@@H](O)[C@]5(C)[C@H]4CC[C@]3(C)[C@H]1[C@@H]2C [ruscogenin],improvement of skin microcirculation after topical administration to skin surface,[1],cannot significantly improve skin microcirculation
β-aescin,improvement of skin microcirculation after topical administration to skin surface,[1],cannot significantly improve skin microcirculation
COc1ccc([C@@H]2CC(=O)c3c(O)cc(O[C@@H]4O[C@H](CO)[C@@H](O)[C@H](O)[C@H]4O[C@@H]4O[C@@H](C)[C@H](O)[C@@H](O)[C@H]4O)cc3O2)cc1O [neohesperidin],Working time point,"[2]; 0.5% (w/v) solution, smearing on back skin, time points with P<0.1 in 24-h test",6 h
same,Working time point,"[2]; 1% (w/v) solution, smearing on back skin, time points with P<0.1 in 24-h test",2 h and 3 h
same,Working time point,"[2]; 2% (w/v) solution, orally, 24-h test",—
same,blood flow in skin microvessels as compared to the blank side,[2]; smearing backs of rabbits with different concentrations,significantly enhanced
tanshinone,improvement of skin microcirculation after topical administration to skin surface,[1],cannot significantly improve skin microcirculation
